Data published in US20250352520A1, “USE OF DEXPRAMIPEXOLE FOR THE TREATMENT OF EOSINOPHILIC COPD” (Areteia Therapeutics, Inc., priority 2024, published 2025).

Details: Week 8; >=50% AEC reduction at Week 16

CCCN[C@@H]1CCc2nc(N)sc2C1 [Dexpramipexole, (6R)-2-amino-4,5,6,7-tetrahydro-6-(propylamino)benzothiazole]
Pre-BD FEF25-75 % change from baseline, Max: 38%
Pre-BD FEF25-75 % change from baseline, Mean ± SD: 10.2 ± 27.88%
Pre-BD FEF25-75 % change from baseline, Median: 9.5%
Pre-BD FEF25-75 % change from baseline, Min: −17%
Pre-BD FEF25-75 % change from baseline, Q1: −17%
Pre-BD FEF25-75 % change from baseline, Q3: 38%
Pre-BD FEF25-75 Observed, Max: 1010 mL/s
Pre-BD FEF25-75 Observed, Mean ± SD: 666.7 ± 398.29 mL/s
Pre-BD FEF25-75 Observed, Median: 760.0 mL/s
Pre-BD FEF25-75 Observed, Min: 230 mL/s
Pre-BD FEF25-75 Observed, Q1: 230 mL/s
Pre-BD FEF25-75 Observed, Q3: 1010 mL/s
Pre-BD FEF25-75 change from baseline, Max: 280 mL/s
Pre-BD FEF25-75 change from baseline, Mean ± SD: 46.7 ± 221.21 mL/s
Pre-BD FEF25-75 change from baseline, Median: 20.0 mL/s
Pre-BD FEF25-75 change from baseline, Min: -160 mL/s
Pre-BD FEF25-75 change from baseline, Q1: -160 mL/s
Pre-BD FEF25-75 change from baseline, Q3: 280 mL/s
Pre-BD FEV1 % change from baseline, Max: 53%
Pre-BD FEV1 % change from baseline, Mean ± SD: 18.7 ± 30.56%
Pre-BD FEV1 % change from baseline, Median: 8.3%
Pre-BD FEV1 % change from baseline, Min: −5%
Pre-BD FEV1 % change from baseline, Q1: −5%
Pre-BD FEV1 % change from baseline, Q3: 53%
Pre-BD FEV1 Observed, Max: 1990 mL
Pre-BD FEV1 Observed, Mean ± SD: 1453.3 ± 616.47 mL
Pre-BD FEV1 Observed, Median: 1590.0 mL
Pre-BD FEV1 Observed, Min: 780 mL
Pre-BD FEV1 Observed, Q1: 780 mL
Pre-BD FEV1 Observed, Q3: 1990 mL
Pre-BD FEV1 change from baseline, Max: 690 mL
Pre-BD FEV1 change from baseline, Mean ± SD: 220.0 ± 413.88 mL
Pre-BD FEV1 change from baseline, Median: 60.0 mL
Pre-BD FEV1 change from baseline, Min: -90 mL
Pre-BD FEV1 change from baseline, Q1: -90 mL
Pre-BD FEV1 change from baseline, Q3: 690 mL
Pre-BD FVC % change from baseline, Max: 24%
Pre-BD FVC % change from baseline, Mean ± SD: 8.8 ± 13.54%
Pre-BD FVC % change from baseline, Median: 3.3%
Pre-BD FVC % change from baseline, Min: −1%
Pre-BD FVC % change from baseline, Q1: −1%
Pre-BD FVC % change from baseline, Q3: 24%
Pre-BD FVC Observed, Max: 3130 mL
Pre-BD FVC Observed, Mean ± SD: 2626.7 ± 477.53 mL
Pre-BD FVC Observed, Median: 2570.0 mL
Pre-BD FVC Observed, Min: 2180 mL
Pre-BD FVC Observed, Q1: 2180 mL
Pre-BD FVC Observed, Q3: 3130 mL
Pre-BD FVC change from baseline, Max: 610 mL
Pre-BD FVC change from baseline, Mean ± SD: 216.7 ± 344.29 mL
Pre-BD FVC change from baseline, Median: 70.0 mL
Pre-BD FVC change from baseline, Min: -30 mL
Pre-BD FVC change from baseline, Q1: -30 mL
Pre-BD FVC change from baseline, Q3: 610 mL
Pre-BD Peak Flow % change from baseline, Max: 90%
Pre-BD Peak Flow % change from baseline, Mean ± SD: 25.2 ± 58.36%
Pre-BD Peak Flow % change from baseline, Median: 9.6%
Pre-BD Peak Flow % change from baseline, Min: −24%
Pre-BD Peak Flow % change from baseline, Q1: −24%
Pre-BD Peak Flow % change from baseline, Q3: 90%
Pre-BD Peak Flow Observed, Max: 298 L/min
Pre-BD Peak Flow Observed, Mean ± SD: 197.7 ± 87.79 L/min
Pre-BD Peak Flow Observed, Median: 160.0 L/min
Pre-BD Peak Flow Observed, Min: 135 L/min
Pre-BD Peak Flow Observed, Q1: 135 L/min
Pre-BD Peak Flow Observed, Q3: 298 L/min
Pre-BD Peak Flow change from baseline, Max: 141 L/min
Pre-BD Peak Flow change from baseline, Mean ± SD: 37.7 ± 93.77 L/min
Pre-BD Peak Flow change from baseline, Median: 14.0 L/min
Pre-BD Peak Flow change from baseline, Min: -42 L/min
Pre-BD Peak Flow change from baseline, Q1: -42 L/min
Pre-BD Peak Flow change from baseline, Q3: 141 L/min
